Consider 22 compounds from US12297190B2, “Modulators of STING (stimulator of interferon genes)” (PFIZER INC., priority 2019, dated 2025).

The target in test [1] is T1, STING (Homo sapiens, UniProt Q86WV6, G230A/H232R/R293Q/R71H).
T1 construct: host or cells: THP-1 and THP-1 Lucia ISG cells
The experiment in a line: Phosphorylation of IRF3: THP-1 cell ELISA. It counts as cell-based. The following applies: THP-1 cells, 3 hours incubation, phospho-IRF3 ELISA; read-out: THP-1 CELL P-IRF3 EC50. On the procedure: Phosphorylation of IRF3: THP-1 Cell ELISA
STING activation results in recruitment of TBK1 and phosphorylation of IRF3 transcription factor before induction of type I interferons. THP-1 cells (InvivoGen) were grown in RPMI media plus 2 mM L-glutamine, 10% fetal bovine serum, and 0.5% Pen-Strep. 10^4 cells were seeded in 96-well plates and incubated overnight 37° C., 5% CO2. Compounds serial diluted compounds in media (final 0.5% DMSO) were added to the cells and incubated for an additional 3 hours. After incubation, the plates were centrifuged at 2000 rpm for 5 min. The cells were then lysed in 100 μl RIPA buffer and vortexed for 30 minutes at room temperature. 25 μl of lysate was then transferred to clear polystyrene High Bind plates that had been previously coated with mouse anti-human IRF-3 capture antibody (BD Pharmigen), and allowed to incubate at 4° C. for 16 hours. The plates were then washed and incubated with rabbit anti-phospho-IRF3 detection antibody (Cell Signaling Technologies) for 1.5 hours at room temperature. Finally, an HRP-linked secondary antibody (Cell Signaling Technologies) was added for 30 min before the Glo Substrate Reagent (R&D Systems) was used generate the luminescent signal. The signal was measured using a Perkin-Elmer Envision microplate reader. Data were normalized to “% effect” with a positive control STING agonist that was known to maximize the phosphorylated IRF3 signal and the negative control was DMSO.

Test [2] deals with T1, STING. The experiment in a line: Interferon-β induction: THP-1 Lucia ISG reporter cell line. Format: cell-based. The following applies: THP-1 Lucia ISG cells, 24 hours incubation, luciferase reporter; read-out: THP-1 Lucia ISG Cells IFN-β EC50. The protocol: Interferon-β Induction: THP-1 ISG Reporter Cell Line
THP-1 Lucia™ ISG cells (InvivoGen) express the secreted luciferase “Lucia” reporter gene under the control of an IRF-inducible composite promotor comprised of five interferon response elements. THP-1 Lucia™ ISG cells were grown in RPMI media plus 2 mM L-glutamine, 10% fetal bovine serum, and 0.5% Pen-Strep. Hygromycin B and Zeocin were present to maintain stable transfection. 10^4 cells were seeded in 96-well plates and incubated overnight 37° C., 5% CO2. 50 μL of serial diluted compounds in media (final 0.5% DMSO) was and incubated for an additional 24 hours. After incubation, the plates were centrifuged at 2000 rpm for 10 min. 50 μl of cell culture supernatant of each well was transferred to a white, opaque 96-well plate. One pouch of QUANTI-Luc™ (InvivoGen) powder was prepared in 25 mL of endotoxin-free water and 100 μL of prepared warm QUANTI-Luc solution were added to each well containing the supernatant. The luminescence signal was measured using a Perkin-Elmer Envision microplate reader. Data were normalized to “% effect” with a positive control STING agonist that was known to maximize the luciferase signal and the negative control DMSO.

The next test has as its target R232-STING (Homo sapiens, UniProt Q86WV6, H232R). The experiment in a line: biochemical.

Sequence of R232-STING (Q86WV6 155-341 H232R): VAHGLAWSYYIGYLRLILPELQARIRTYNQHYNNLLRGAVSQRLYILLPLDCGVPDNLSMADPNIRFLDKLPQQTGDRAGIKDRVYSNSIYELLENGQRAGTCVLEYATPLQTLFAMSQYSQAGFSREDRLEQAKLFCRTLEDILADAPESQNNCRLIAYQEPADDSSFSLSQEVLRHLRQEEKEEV
T1 sequence (Q86WV6 whole entry R71H/G230A/H232R/R293Q): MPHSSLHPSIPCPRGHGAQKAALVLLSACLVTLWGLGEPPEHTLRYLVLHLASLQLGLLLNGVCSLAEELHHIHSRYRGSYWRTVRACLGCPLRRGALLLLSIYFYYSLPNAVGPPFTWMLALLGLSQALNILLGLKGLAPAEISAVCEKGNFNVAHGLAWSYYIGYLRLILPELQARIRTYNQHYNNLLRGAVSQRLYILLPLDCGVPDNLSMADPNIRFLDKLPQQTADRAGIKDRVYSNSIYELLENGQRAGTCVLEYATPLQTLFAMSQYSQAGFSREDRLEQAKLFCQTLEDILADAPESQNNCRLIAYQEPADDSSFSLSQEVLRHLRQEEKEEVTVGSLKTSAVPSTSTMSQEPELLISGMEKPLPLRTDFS

By EC50 is commonly meant the concentration that produces a half-maximal response. Broadly, the Ki is the dissociation constant of the complex between target and ligand, obtained from inhibition or displacement. `CCn1nc(C)cc1-c1csc(-c2cc(C(N)=O)cc3c2cnn3C)n1` [Example H01, 4-[4-(1-ethyl-3-methyl-1H-pyrazol-5-yl)-1,3-thiazol-2-yl]-1-methyl-1H-indazole-6-carboxamide]: the EC50 at STING [1] amounted to 10800 nM; on STING [2] it was 7170 nM. Also, affinity on R232-STING was put at a Ki of 87.6 nM.

As to `Cc1cc(-c2n[nH]c(-c3cc(C(N)=O)cc4c3cnn4C(F)F)n2)n(CCC(=O)O)n1` [YY20, 3-(5-{5-[6-carbamoyl-1-(difluoromethyl)-1H-indazol-4-yl]-1H-1,2,4-triazol-3-yl}-3-methyl-1H-pyrazol-1-yl)propanoic acid], the EC50 on STING [1] and on STING [2] was > 100000 nM in each case. On R232-STING, this compound showed a Ki of 171 nM.

On to `CCn1nc(C)cc1-c1nnc(-c2cc(C(N)=O)cc3c2cnn3CCC(=O)O)[nH]1` [YY03, 3-{6-carbamoyl-4-[5-(1-ethyl-3-methyl-1H-pyrazol-5-yl)-4H-1,2,4-triazol-3-yl]-1H-indazol-1-yl}propanoic acid], for which the half-maximal effective concentration (EC50) at STING [1] and on STING [2] was > 100000 nM each time. This compound also showed a Ki at R232-STING of 109 nM.

Regarding `Cc1nn(CCO)c(-c2nnc(-c3nc(C(N)=O)cc4c3cnn4C)[nH]2)c1O` [Example V01, 4-{5-[4-hydroxy-1-(2-hydroxyethyl)-3-methyl-1H-pyrazol-5-yl]-4H-1,2,4-triazol-3-yl}-1-methyl-1H-pyrazolo[4,3-c]pyridine-6-carboxamide], the concentration giving a half-maximal response (EC50) at STING [1] was 890 nM; at STING [2], 590 nM. This compound also yielded a Ki at R232-STING of 6.9 nM.

In the case of `CCn1nc(C)c(F)c1-c1nc(-c2nc(C(N)=O)cc3c2cnn3C)n(C)n1` [Example J03], the EC50 came to 630 nM at STING [1] and 760 nM on STING [2]. The Ki at R232-STING was 6.8 nM.

In the case of `CCn1nc(C)c(F)c1-c1nc(-c2cc(C(N)=O)cc3c2cnn3CCN2CCOCC2)n[nH]1` [Example C05, 4-[5-(1-ethyl-4-fluoro-3-methyl-1H-pyrazol-5-yl)-1H-1,2,4-triazol-3-yl]-1-[2-(morpholin-4-yl)ethyl]-1H-indazole-6-carboxamide], the figures for the 50% effective concentration (EC50) on STING [1] and on STING [2] were 31600 nM and 27400 nM, respectively. In addition, the Ki at R232-STING worked out at 165 nM.

Consider `CCn1nc(C)c(O)c1-c1n[nH]c(-c2nc(C(N)=O)cc3c2cnn3CCN2CCOCC2)n1` [YY34, 4-[3-(1-ethyl-4-hydroxy-3-methyl-1H-pyrazol-5-yl)-1H-1,2,4-triazol-5-yl]-1-[2-(morpholin-4-yl)ethyl]-1H-pyrazolo[4,3-c]pyridine-6-carboxamide], for which the EC50 at STING [1] and on STING [2] was > 10000 nM in each case. This compound also yielded a Ki on R232-STING of 84.2 nM.

As to `CCn1nc(C)c(F)c1-c1nc(-c2nc(C(N)=O)cc3c2cnn3CCN2CCC(C#N)CC2)n(C)n1` [Example J02], the EC50 on STING [1] amounted to 3600 nM; on STING [2], 2760 nM. The compound also came in with a Ki on R232-STING of 32.4 nM.

Take `Cc1cc(-c2nc(-c3nc(C(N)=O)cc4c3cnn4C)n(C)n2)n(CCCO)n1` [Example AD01, 4-{3-[1-(3-hydroxypropyl)-3-methyl-1H-pyrazol-5-yl]-1-methyl-1H-1,2,4-triazol-5-yl}-1-methyl-1H-pyrazolo[4,3-c]pyridine-6-carboxamide]: the EC50 at STING [1] and on STING [2] was 80 nM in each case. Besides, affinity at R232-STING was put at a Ki of 2.2 nM.

On to `CCn1nc(C)cc1-c1n[nH]c(-c2cc(C(N)=O)cc3c2cnn3CCN2C3CCC2COC3)n1` [YY23, 4-[3-(1-ethyl-3-methyl-1H-pyrazol-5-yl)-1H-1,2,4-triazol-5-yl]-1-[2-(3-oxa-8-azabicyclo[3.2.1]octan-8-yl)ethyl]-1H-indazole-6-carboxamide], for which the EC50 at STING [1] and at STING [2] was > 33300 nM each time. Besides, affinity at R232-STING was put at a Ki of 457 nM.

Regarding `CCn1nc(C)cc1-c1n[nH]c(-c2cc(C(N)=O)cc3c2cnn3CC)n1` [Example B01, 1-ethyl-4-[3-(1-ethyl-3-methyl-1H-pyrazol-5-yl)-1H-1,2,4-triazol-5-yl]-1H-indazole-6-carboxamide], the EC50 at STING [1] worked out at 25100 nM; on STING [2], 23200 nM. The compound further yielded a Ki at R232-STING of 430 nM.

For the compound `Cc1cc(-c2nc(-c3nc(C(N)=O)cc4c3cnn4C)c(CN)o2)n(CCCO)n1` [Example U04], the EC50 on STING [1] worked out at 1990 nM; on STING [2], 1850 nM. The compound further registered a Ki at R232-STING of 34.4 nM.

In the case of `CCn1nc(C)cc1-c1nnc(-c2cc(C(N)=O)cc3c2cnn3Cc2nc3c(o2)CNC3)[nH]1` [YY16, 1-[(5,6-dihydro-4H-pyrrolo[3,4-d][1,3]oxazol-2-yl)methyl]-4-[5-(1-ethyl-3-methyl-1H-pyrazol-5-yl)-4H-1,2,4-triazol-3-yl]-1H-indazole-6-carboxamide], the EC50 on STING [1] and at STING [2] was > 100000 nM in each case. Further, the Ki on R232-STING is 369 nM.

With `CCn1ncc(O)c1-c1nc(-c2nc(C(N)=O)cc3c2cnn3C)c(CN)o1` [Example U02], the EC50 at STING [1] amounted to 6500 nM; at STING [2] it was 6200 nM. This compound also displayed a Ki on R232-STING of 51.6 nM.

For `Cc1nn(CCC(=O)O)c(-c2n[nH]c(-c3nc(C(N)=O)cc4c3cnn4C)n2)c1O` [YY32, 3-{5-[5-(6-carbamoyl-1-methyl-1H-pyrazolo[4,3-c]pyridin-4-yl)-1H-1,2,4-triazol-3-yl]-4-hydroxy-3-methyl-1H-pyrazol-1-yl}propanoic acid], the EC50 was > 11100 nM at STING [1] and > 10000 nM on STING [2]. Also, the Ki on R232-STING was 7.2 nM.

Regarding `Cc1cc(-c2n[nH]c(-c3c(F)c(C(N)=O)cc4c3cnn4C)n2)n(CCC(=O)O)n1` [YY21, 3-{5-[5-(6-carbamoyl-5-fluoro-1-methyl-1H-indazol-4-yl)-1H-1,2,4-triazol-3-yl]-3-methyl-1H-pyrazol-1-yl}propanoic acid], the EC50 on STING [1] and at STING [2] was > 100000 nM in each case. Besides, on R232-STING, the Ki was > 891 nM.

For the compound `CCn1nc(C)cc1-c1nnc(-c2cc(C(N)=O)cc3c2cnn3[C@H](C)CN2CCOCC2)[nH]1` [YY07, 4-[5-(1-ethyl-3-methyl-1H-pyrazol-5-yl)-4H-1,2,4-triazol-3-yl]-1-[(2R)-1-(morpholin-4-yl)propan-2-yl]-1H-indazole-6-carboxamide], the EC50 at STING [1] and at STING [2] was > 100000 nM each time. Affinity at R232-STING was put at a Ki of 337 nM.

On to `CCn1nc(C)cc1-c1n[nH]c(-c2nc(C(N)=O)cc3c2cnn3C)n1` [Example K01, 4-[3-(1-ethyl-3-methyl-1H-pyrazol-5-yl)-1H-1,2,4-triazol-5-yl]-1-methyl-1H-pyrazolo[4,3-c]pyridine-6-carboxamide], for which the concentration for a half-maximal effect (EC50) was 170 nM at STING [1] and 180 nM on STING [2]. The compound further had a Ki at R232-STING of 16 nM.

On to `CCn1nc(CO)cc1-c1n[nH]c(-c2nc(C(N)=O)cc3c2cnn3C)n1` [YY30, 4-{3-[1-ethyl-3-(hydroxymethyl)-1H-pyrazol-5-yl]-1H-1,2,4-triazol-5-yl}-1-methyl-1H-pyrazolo[4,3-c]pyridine-6-carboxamide], for which the EC50 at STING [1] was > 13300 nM; at STING [2], > 33300 nM. Also, at R232-STING, the Ki came out at 41.6 nM.

`CCn1nc(C)c(F)c1-c1c[nH]c(-c2cc(C(N)=O)cc3c2cnn3C)n1` [Example G02]: the half-maximal effective concentration (EC50) at STING [1] came to 1160 nM; on STING [2], 1180 nM. The affinity on R232-STING, expressed as Ki, was 30.4 nM.

As to `CCn1nc(C)cc1-c1nc(-c2nc(C(N)=O)cc3c2cnn3C)n(C)n1` [Example J01, 4-[3-(1-ethyl-3-methyl-1H-pyrazol-5-yl)-1-methyl-1H-1,2,4-triazol-5-yl]-1-methyl-1H-pyrazolo[4,3-c]pyridine-6-carboxamide], the concentration giving a half-maximal response (EC50) on STING [1] was 530 nM; on STING [2] it was 510 nM. The Ki at R232-STING stood at 14.2 nM.

`CCn1nc(C)cc1-c1nnc(-c2cc(C(N)=O)cc3c2cnn3CCN2CCC(OC)CC2)[nH]1` [YY11, 4-[5-(1-ethyl-3-methyl-1H-pyrazol-5-yl)-4H-1,2,4-triazol-3-yl]-1-[2-(4-methoxypiperidin-1-yl)ethyl]-1H-indazole-6-carboxamide]: the concentration giving a half-maximal response (EC50) on STING [1] and on STING [2] was > 100000 nM in each case. The Ki on R232-STING was found to be 529 nM.
